Experimental data published in US10537567B2, “Kinase inhibitors for treatment of disease” (BioAxone BioSciences, Inc., priority 2017, dated 2020).
Like-named read-outs stand apart in the source and are kept apart here.

Experiments:
ROCK1 [1] = target: T1, ROCK1 (Homo sapiens, UniProt Q13464); assay: DiscoverX kinome screen; assay type: binding; set-up: are incubated with DNA-tagged kinase domains tagged; DNA tag; purchased DiscoverX; conditions: 10,000 nM API
Procedure: (§1) A 468-target kinome screen and a safety screen were carried out to examine the off-target profiles of different kinase inhibitors (DiscoverX, Freemont, Calif.). The kinome screen is a binding assay where API interference of kinase domain/substrate binding is assessed as percent of control. Less than 10% binding (or >90% binding inhibition) is most biologically relevant and considered as a ‘hit’. BA-2017 only had 7 off-target hits compared to BA-1049 and Netarsudil, which both had 11 hits (Table 1) (Studirvant et al. 2016 Bioorg Med Chem Lett. 26(10):2475-2480). […] Published data for Netarsudil were with 200 times less API. […] The NET activity likely helps to decrease IOP but might increase hyperemia, while the SERT activity might have long-term safety consequences (Costagliola et al. 2004 CNS drugs 18(8): p. 475-484).
(§2) In the kinome screen BA-2017 had fewer off-target hits (Table 1) than BA-1049. […] An interesting hit from the kinome screen was on Abl (Table 1), an oncogene that also regulates many cellular activities, including vascular leakage.
Target sequence in this assay (Q13464 76-338 limits assumed): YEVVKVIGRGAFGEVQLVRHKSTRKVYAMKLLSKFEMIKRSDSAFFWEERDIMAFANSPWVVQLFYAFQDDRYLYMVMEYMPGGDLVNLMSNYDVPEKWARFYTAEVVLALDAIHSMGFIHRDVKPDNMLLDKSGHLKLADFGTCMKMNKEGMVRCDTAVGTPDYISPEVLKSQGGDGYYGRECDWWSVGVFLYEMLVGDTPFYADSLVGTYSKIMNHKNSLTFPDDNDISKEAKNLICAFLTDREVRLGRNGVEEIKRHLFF

ROCK2 [2] = target: T2, ROCK2 (Homo sapiens, UniProt O75116); assay: DiscoverX kinome screen; assay type: binding; set-up: are incubated with DNA-tagged kinase domains tagged; DNA tag; purchased DiscoverX; conditions: 10,000 nM API
Procedure: as §1, §2
Target sequence in this assay (O75116 92-354 limits assumed): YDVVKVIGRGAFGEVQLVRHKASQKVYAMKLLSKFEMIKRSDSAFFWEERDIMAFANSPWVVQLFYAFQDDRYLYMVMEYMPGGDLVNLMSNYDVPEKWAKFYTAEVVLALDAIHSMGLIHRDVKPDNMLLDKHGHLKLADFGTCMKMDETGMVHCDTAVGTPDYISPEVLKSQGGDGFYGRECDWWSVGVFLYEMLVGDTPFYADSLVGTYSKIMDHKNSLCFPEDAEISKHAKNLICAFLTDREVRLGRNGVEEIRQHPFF

[3] = system: cultured primary cortical neurons; assay: Beta-amyloid and phosphorylated Tau in cortical neurons from 3×-Tg AD mice; assay type: cell-based; conditions: 1, 10 or 50 μM, 24 or 48 hours
Excerpt: Alzheimer's disease is the most common cause of dementia in the population. Pathologic hallmarks of the disease include the presence in the brain of beta-amyloid bearing plaques and neurofibrillary tangles containing hyperphosphorylated microtubule-associated protein Tau. The 3×-Tg AD mouse model was developed to serve as a rodent model for the development of the biochemical hallmarks of human Alzheimer's disease. This mouse strain harbors 3 transgenes encoding mutant Presenilin-1 (PS1), human Swedish mutant Amyloid Precursor Protein (APP-Swe), and mutant P301L-Tau and is obtained from Jackson Laboratories (Bar Harbor, Me.). […] Similarly, Cancino et al (Cancino et al.; Neurobiol. Aging; 2011; 32:1249) identified the role of increased c-Abl kinase activity in transgenic AD model mice to direct increased phosphorylation of Tau.
Whole brain cortices from one day old (P1) 3×-Tg AD mice (Jackson Labs) are dissected and then dissociated using trypsinization and trituration before being cultured under serum free conditions (NeuroBasal Medium plus B27 supplements; Thermo-Fisher) on dishes pre-coated with poly-ornithine and laminin as growth substrate. The cultures are plated in 24 well tissue culture plates, with 100 to 200,000 cells per well at plating. Cultures are maintained for 5 to 7 days, with half-volume medium changes every other day, before testing of inhibitor treatments. […] Protein extracts are prepared in RIPA buffer and protein concentrations in each extract are determined using the Pierce BCA assay (Pierce Biotechnology). Equivalent amounts of protein from each extract are separated on 4-12% polyacrylamide Bis-Tris gels run in MES buffer (Thermo-Fisher). After transferring to PVDF membranes, the Western blots are processed to examine the levels of beta-amyloid precursor protein (βPAPP), the peptide β-amyloid (Aβ), and levels of both phosphorylated and total tau protein.
For these Western blotting experiments, hyperphosphorylated Tau is detected using antibody AT8-phospho-Ser-202/Thr-205 (Pierce Biotechnology, Rockford, Ill.); total phosphorylated and nonphosphorylated tau is detected with Tau5 antibody (Calbiochem, San Diego, Calif.); total PAPP is detected using monoclonal antibody 22C11 (EMD-Millipore) and Aβ peptide levels are detected using monoclonal antibody 6E10 (BioLegend; San Diego, Calif.). The form of Aβ present can be estimated by comparison to purified Aβ 1-40, 1-42 peptides (AnaSpec; Fremont, Calif.) run as standards on companion gels.

ROCK1 [4] = target: T1, ROCK1; assay: Direct filter-binding radiometric kinase assay (Eurofins) at Km ATP; assay type: biochemical; set-up: purchased Eurofins Testing (Dundee, Scotland, UK)
Procedure: (§3) ROCK1 and ROCK2 IC50 determinations were made using ATP concentrations at the Km ATP of 70 μM and 15 μM for ROCK1 and ROCK2, respectively.
(§4) For the data shown in Table 4, IC50 inhibition curves were performed at the respective Km for ATP for both ROCK1 and ROCK2. Performing these assays at the Km of ATP gives a better representation of the inhibitory activity. Other comparisons where differing kinases are tested at a single ATP concentration can potentially misrepresent the comparative efficacy since enzyme inhibitory activity tested below the Km for ATP of the enzyme, produces a circumstance where the enzyme is actually not constantly bound with ATP and the reaction velocity becomes sub-optimal.
Target sequence in this assay (Q13464 whole entry, the tested form may be a part): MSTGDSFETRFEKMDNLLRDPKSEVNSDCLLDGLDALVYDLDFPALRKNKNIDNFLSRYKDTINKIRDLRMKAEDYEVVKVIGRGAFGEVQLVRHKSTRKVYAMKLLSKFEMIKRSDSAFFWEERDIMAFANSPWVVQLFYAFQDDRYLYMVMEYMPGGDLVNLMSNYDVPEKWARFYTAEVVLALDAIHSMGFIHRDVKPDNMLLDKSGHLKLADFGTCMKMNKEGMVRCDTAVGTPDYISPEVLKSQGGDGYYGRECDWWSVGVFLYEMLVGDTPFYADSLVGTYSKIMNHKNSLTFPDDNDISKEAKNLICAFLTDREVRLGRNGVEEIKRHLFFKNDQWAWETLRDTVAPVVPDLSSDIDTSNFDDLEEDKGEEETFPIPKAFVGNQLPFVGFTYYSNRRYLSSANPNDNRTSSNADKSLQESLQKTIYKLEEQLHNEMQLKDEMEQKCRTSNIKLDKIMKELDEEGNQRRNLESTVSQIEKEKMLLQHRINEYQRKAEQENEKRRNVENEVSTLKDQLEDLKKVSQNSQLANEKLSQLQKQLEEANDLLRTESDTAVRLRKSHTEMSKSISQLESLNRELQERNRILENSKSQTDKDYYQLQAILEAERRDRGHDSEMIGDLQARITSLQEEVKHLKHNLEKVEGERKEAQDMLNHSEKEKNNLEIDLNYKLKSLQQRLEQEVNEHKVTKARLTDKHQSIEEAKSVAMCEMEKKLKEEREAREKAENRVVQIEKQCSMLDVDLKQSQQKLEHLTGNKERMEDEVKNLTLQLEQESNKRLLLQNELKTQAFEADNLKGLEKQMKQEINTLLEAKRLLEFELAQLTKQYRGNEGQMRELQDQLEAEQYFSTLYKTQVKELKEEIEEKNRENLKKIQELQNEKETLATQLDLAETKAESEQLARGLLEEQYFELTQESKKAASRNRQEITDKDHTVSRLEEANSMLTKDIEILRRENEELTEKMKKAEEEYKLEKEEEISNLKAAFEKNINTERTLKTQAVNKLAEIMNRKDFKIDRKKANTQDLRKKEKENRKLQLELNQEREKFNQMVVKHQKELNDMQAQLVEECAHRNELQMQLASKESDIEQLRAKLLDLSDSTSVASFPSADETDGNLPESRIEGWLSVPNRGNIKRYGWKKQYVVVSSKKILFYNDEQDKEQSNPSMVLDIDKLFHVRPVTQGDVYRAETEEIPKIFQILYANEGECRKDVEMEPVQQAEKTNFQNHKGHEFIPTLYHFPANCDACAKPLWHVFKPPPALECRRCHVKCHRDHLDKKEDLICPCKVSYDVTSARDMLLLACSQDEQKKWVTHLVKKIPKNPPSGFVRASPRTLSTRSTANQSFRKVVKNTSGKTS

ROCK2 [5] = target: T2, ROCK2; assay: as above; assay type: biochemical; set-up: purchased Eurofins Testing (Dundee, Scotland, UK); conditions: for ROCK1/ROCK2 (fold difference): IC50 at respective Km ATP
Procedure: as §3, §4
Target sequence in this assay (O75116 whole entry, the tested form may be a part): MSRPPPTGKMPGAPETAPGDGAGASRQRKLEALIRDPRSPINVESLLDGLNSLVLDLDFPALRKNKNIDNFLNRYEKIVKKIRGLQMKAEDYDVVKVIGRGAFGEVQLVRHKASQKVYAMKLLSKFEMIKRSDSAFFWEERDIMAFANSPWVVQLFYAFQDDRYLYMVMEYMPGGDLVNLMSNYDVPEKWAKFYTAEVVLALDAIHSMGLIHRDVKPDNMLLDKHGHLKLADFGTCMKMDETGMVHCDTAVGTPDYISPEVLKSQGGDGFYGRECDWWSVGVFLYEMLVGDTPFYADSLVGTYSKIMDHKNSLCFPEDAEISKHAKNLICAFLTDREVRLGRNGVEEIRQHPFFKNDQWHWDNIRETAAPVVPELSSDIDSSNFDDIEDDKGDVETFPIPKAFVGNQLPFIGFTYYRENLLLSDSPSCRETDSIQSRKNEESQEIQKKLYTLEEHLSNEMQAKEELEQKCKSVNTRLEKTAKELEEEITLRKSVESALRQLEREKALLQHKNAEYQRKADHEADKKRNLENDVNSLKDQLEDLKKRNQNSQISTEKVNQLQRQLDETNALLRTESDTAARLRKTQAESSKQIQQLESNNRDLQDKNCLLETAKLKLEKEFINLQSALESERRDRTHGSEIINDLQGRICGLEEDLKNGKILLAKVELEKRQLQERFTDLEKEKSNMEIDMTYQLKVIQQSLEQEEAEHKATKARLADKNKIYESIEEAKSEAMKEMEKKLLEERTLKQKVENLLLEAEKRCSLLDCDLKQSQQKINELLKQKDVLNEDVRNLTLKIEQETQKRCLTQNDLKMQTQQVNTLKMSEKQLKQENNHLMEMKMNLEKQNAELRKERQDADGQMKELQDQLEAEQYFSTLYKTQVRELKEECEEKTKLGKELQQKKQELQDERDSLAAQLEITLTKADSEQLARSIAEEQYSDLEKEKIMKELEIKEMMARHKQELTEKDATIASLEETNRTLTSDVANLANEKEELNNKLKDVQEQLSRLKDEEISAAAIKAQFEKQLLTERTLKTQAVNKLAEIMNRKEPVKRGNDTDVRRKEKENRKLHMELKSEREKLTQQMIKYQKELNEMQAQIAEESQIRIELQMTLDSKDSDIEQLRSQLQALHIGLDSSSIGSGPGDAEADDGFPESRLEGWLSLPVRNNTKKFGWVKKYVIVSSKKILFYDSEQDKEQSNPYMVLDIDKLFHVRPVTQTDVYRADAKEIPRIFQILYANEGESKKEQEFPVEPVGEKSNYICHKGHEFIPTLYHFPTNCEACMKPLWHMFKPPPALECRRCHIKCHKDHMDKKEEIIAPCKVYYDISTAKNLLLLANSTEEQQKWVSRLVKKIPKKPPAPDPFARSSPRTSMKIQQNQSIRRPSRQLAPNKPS

retinal ganglion cells = assay: RGC dendritic arbor in Hb9-GFP glaucoma mice; assay type: in vivo; conditions: 1 month, weekly microbead injection, daily eye drops
Excerpt: To evaluate changes in the RGC dendritic arbor in glaucoma and the ability of the API to prevent neuronal loss in the retina, mice are used which carry an enhanced GFP (eGFP) driven by the Hb9 promoter (B6.Cg-Tg(Hlxb9-GFP)1Tmj/J; Jackson Labs), which directs GFP expression to the on-off direction-sensitive ganglion cell (ooDSGC) sub-population of retinal ganglion cells (Trenholm et al. 2011 Neuron. 71(4): p. 683-694). These mice allow visualization of non-overlapping RGCs for unambiguous identification of individual dendritic arbors. Treated and control glaucoma eyes are examined, as well as normal eyes 1 month after weekly microbead injection and daily eye drops. The eyes are fixed by perfusion and prepared for retinal whole mounts, and the labeled ganglion cells visualized by fluorescence microscopy. Images are imported into ImageJ and analyzed for dendritic field area (using the polygon tool to join points along the perimeter of the field) and subjected to Sholl analysis using the plugin for Image J to be able to characterize dendritic branching and complexity of normal, glaucoma/treated and glaucoma/control RGCs.

cellular ROCK activity = assay: pMLC2 immunoblot dose-response in human trabecular meshwork cells; assay type: cell-based; conditions: serum starved TM cells, 1 hour treatment
Procedure: To quantify the inhibitory effect of the compounds the TM cells were serum starved and treated for 1 hour with the indicated compound concentration and then lysed and extracted for SDS-PAGE and immunoblotting for phosphorylated myosin light chain kinase 2 (pMLC2), which is a biomarker for cellular ROCK activity.

Compound | Kinome Screen % inhibition ROCK1 (ROCK1 [1]) [%] | Kinome Screen % inhibition ROCK2 (ROCK2 [2]) [%] | Accumulation of phosphorylated forms of Tau protein [3] | Production of Aβ peptide [3] | IC50 (ROCK1 [4]) [µM] | IC50 (ROCK2 [5]) [µM] | ROCK1/ROCK2 (fold difference) (ROCK2 [5]) | Retinal ganglion cell dendritic arbors (retinal ganglion cells) | Reversal of ROCK activation (pMLC2) (cellular ROCK activity) | IC50 (ROCK1 [4]; ATP at Km, 70 μM, * = higher purity BA-1076) [µM] | ROCK1/ROCK2 (fold difference) (ROCK2 [5]; listed as BA-1076*)
C[C@H](N)C1CCN(S(=O)(=O)c2cccc3c(=O)[nH]ccc23)CC1 [BA-2057] | >98 | >96 | dose-dependent reduction in the accumulation of phosphorylated forms of Tau protein | reduced production of Aβ peptide | 23.6 | 0.491 | 48.0 | protect and/or restore retinal ganglion cell dendritic arbors | more potent than the parent BA-1076 |  | 
C[C@H](N)C1CCN(S(=O)(=O)c2cccc3cnccc23)CC1 [BA-1076] | >99 | >99 | dose-dependent reduction in the accumulation of phosphorylated forms of Tau protein | reduced production of Aβ peptide |  |  | 55.5 | protect and/or restore retinal ganglion cell dendritic arbors | showed potency to reverse ROCK activation | 19.6 | 60.8
